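Cells were grown in 96-well plates and exposed to each compound for 48 hours at five concentrations; endpoints were interpolated linearly between bracketing concentrations, or set to the highest concentration if not reached. GI50: concentration for 50% inhibition of growth. TGI: total growth inhibition.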
How the values were obtained:
Experiment in all cases: inhibition of tumour cell growth, NCI panel, 48 h
[1] = tested on: 786-0 renal
[2] = tested on: M14 melanoma
[3] = tested on: IGROV1 ovarian
[4] = tested on: SK-OV-3 ovarian
[5] = tested on: HCT-15 colon
[6] = tested on: U251 CNS
[7] = tested on: SN12C renal
[8] = tested on: MOLT-4 leukemia
[9] = tested on: MDA-MB-435
[10] = tested on: HOP-92 NSCLC
[11] = tested on: MDA-MB-231 breast
[12] = tested on: K-562 leukemia
[13] = tested on: HS 578T breast
[14] = tested on: NCI-H23 lung
[15] = tested on: T-47D breast
[16] = tested on: SF-295 CNS
[17] = tested on: MALME-3M melanoma
[18] = tested on: OVCAR-8 ovarian
[19] = tested on: SNB-19 CNS
[20] = tested on: A498 renal
[21] = tested on: UACC-257 melanoma
[22] = tested on: NCI/ADR-RES ovarian
[23] = tested on: MCF7 breast
[24] = tested on: HCC-2998 colon
[25] = tested on: RXF 393 renal
[26] = tested on: SF-268 CNS
[27] = tested on: SK-MEL-5 melanoma
[28] = tested on: SNB-75 CNS
[29] = tested on: PC-3 prostate
[30] = tested on: HL-60(TB) leukemia
[31] = tested on: COLO 205 colon
[32] = tested on: SF-539 CNS
[33] = tested on: UACC-62 melanoma
[34] = tested on: NCI-H226 lung
[35] = tested on: HT29 colon
[36] = tested on: SW-620 colon
[37] = tested on: BT-549 breast
[38] = tested on: LOX IMVI melanoma
[39] = tested on: ACHN renal
[40] = tested on: A549 NSCLC
[41] = tested on: CCRF-CEM leukemia
[42] = tested on: HCT-116 colon
[43] = tested on: OVCAR-5 ovarian
[44] = tested on: HOP-62 NSCLC
[45] = tested on: DU-145 prostate
[46] = tested on: RPMI-8226 leukemia
[47] = tested on: UO-31 renal
[48] = tested on: SR leukemia
[49] = tested on: CAKI-1 renal
[50] = tested on: SK-MEL-2 melanoma
[51] = tested on: TK-10 renal
[52] = tested on: OVCAR-4 ovarian
[53] = tested on: OVCAR-3 ovarian
[54] = tested on: KM12 colon
[55] = tested on: NCI-H460 lung
[56] = tested on: EKVX NSCLC
[57] = tested on: NCI-H522 lung
[58] = tested on: SK-MEL-28 melanoma

COc1ccc(/C=C2\COc3ccc(O)c(O)c3C2=O)cc1
GI50 [1]: 708 nM | TGI [1]: 5270 nM | GI50 [2]: 308 nM | TGI [2]: > 48200 nM | GI50 [3]: 522 nM | TGI [3]: 2490 nM | GI50 [4]: 923 nM | TGI [4]: > 100000 nM | GI50 [5]: 492 nM | TGI [5]: 2740 nM | GI50 [6]: 1310 nM | TGI [6]: 6070 nM | GI50 [7]: 391 nM | TGI [7]: 2530 nM | GI50 [8]: 376 nM | TGI [8]: 20400 nM | GI50 [9]: 257 nM | TGI [9]: 984 nM | GI50 [10]: 1140 nM | TGI [10]: 6100 nM | GI50 [11]: 420 nM | TGI [11]: 3110 nM | GI50 [12]: 330 nM | TGI [12]: > 100000 nM | GI50 [13]: 422 nM | TGI [13]: > 100000 nM | GI50 [14]: 2890 nM | TGI [14]: 14900 nM | GI50 [15]: 1170 nM | TGI [15]: 4710 nM | GI50 [16]: 4620 nM | TGI [16]: > 100000 nM | GI50 [17]: 751 nM | TGI [17]: 2690 nM | GI50 [18]: 458 nM | TGI [18]: 18700 nM | GI50 [19]: 2980 nM | TGI [19]: > 100000 nM | GI50 [20]: 1000 nM | TGI [20]: 5550 nM | GI50 [21]: 1470 nM | TGI [21]: 8970 nM | GI50 [22]: 329 nM | TGI [22]: 35700 nM | GI50 [23]: 464 nM | TGI [23]: > 100000 nM | GI50 [24]: 2450 nM | TGI [24]: 6280 nM | GI50 [25]: 440 nM | TGI [25]: 1310 nM | GI50 [26]: 1340 nM | TGI [26]: 6580 nM | GI50 [27]: 329 nM | TGI [27]: 1250 nM | GI50 [28]: 572 nM | TGI [28]: > 100000 nM | GI50 [29]: 741 nM | TGI [29]: 23600 nM | GI50 [30]: 334 nM | TGI [30]: 2090 nM | GI50 [31]: 3150 nM | TGI [31]: 10800 nM | GI50 [32]: 325 nM | TGI [32]: 1170 nM | GI50 [33]: 513 nM | TGI [33]: 2410 nM | GI50 [34]: 2370 nM | TGI [34]: 6900 nM | GI50 [35]: 3270 nM | TGI [35]: 19600 nM | GI50 [36]: 1310 nM | TGI [36]: 4820 nM | GI50 [37]: 511 nM | TGI [37]: 4850 nM | GI50 [38]: 369 nM | TGI [38]: 1520 nM | GI50 [39]: 637 nM | TGI [39]: 2000 nM | GI50 [40]: 2550 nM | TGI [40]: 16200 nM | GI50 [41]: 333 nM | TGI [41]: 9820 nM | GI50 [42]: 2000 nM | TGI [42]: 6850 nM | GI50 [43]: 2190 nM | TGI [43]: 5850 nM | GI50 [44]: 2240 nM | TGI [44]: 16200 nM | GI50 [45]: 1080 nM | TGI [45]: > 31200 nM | GI50 [46]: 317 nM | TGI [46]: 1200 nM | GI50 [47]: 606 nM | TGI [47]: 1970 nM | GI50 [48]: 403 nM | TGI [48]: > 100000 nM | GI50 [49]: 951 nM | TGI [49]: 4230 nM | GI50 [50]: 517 nM | TGI [50]: 26900 nM | GI50 [51]: 1570 nM | TGI [51]: > 27100 nM | GI50 [52]: 2380 nM | TGI [52]: > 33200 nM | GI50 [53]: 511 nM | TGI [53]: 4570 nM | GI50 [54]: 924 nM | TGI [54]: 3950 nM | GI50 [55]: 2460 nM | TGI [55]: 7940 nM | GI50 [56]: 2470 nM | TGI [56]: > 61300 nM | GI50 [57]: 159 nM | TGI [57]: 402 nM | GI50 [58]: 1150 nM | TGI [58]: 7470 nM
